# According to patent US6355799B1, “Substituted benzene compounds, process for their preparation, and herbicidal and defoliant compositions containing them” (ISK Americas Incorporated, priority 1997, dated 2002):
# Key:
# Format in all cases: in vivo
# [1] = system: upland rice (Oryza sp., var. Tebonnet, RICE); experiment: Pre-emerge test, crop safety; conditions: crop damage rating 0-100, 14 days after application
# In short: (§1)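 Compounds in acetone were track-sprayed at 15-1000 g ai/ha (187 l/ha) on sandy loam pots: pre-emerge one day after seeding, post-emerge at 2-3 leaf stage with 0.25% v/v non-ionic surfactant. Phytotoxicity was rated 14 days later on a 0 (no damage) to 100 (complete death) scale.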
# [2] = system: field corn (Zea mays L., var. Dekalb 535, CORN); experiment: Pre-emerge test, crop safety; conditions: crop damage rating 0-100, 14 days after application
# In short: as §1
# [3] = system: upland rice (Oryza sp., var. Tebonnet, RICE); experiment: Post-emerge test, crop safety; conditions: post-emerge, 14 days after application, rating scale 0-100
# In short: (§2)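 Rating: 0–100 visual injury, 14 DAA. Application: acetone, 187 l/ha, 15–1000 g ai/ha, flat-fan track sprayer with nozzle 40–45 cm above soil or canopy. Post-emerge runs used 0.25% v/v surfactant on 2–3 leaf plants.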
# [4] = system: field corn (Zea mays L., var. Dekalb 535, CORN); experiment: Post-emerge test, crop safety; conditions: post-emerge, 14 days after application, rating scale 0-100
# In short: as §2
# [5] = system: green foxtail (Setaria viridis, SETVI); experiment: Pre-emerge test, greenhouse herbicide activity screening; conditions: phytotoxicity rating 0-100, 14 days after application
# In short: (§3)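 Compounds in acetone were track-sprayed at 15–1000 g ai/ha: pre-emergence onto soil sown the previous day, then top-watered to incorporate and later bottom-watered; post-emergence onto 2–3 leaf plants with 0.25% v/v surfactant, bottom-watered only. Ratings on a 0–100 phytotoxicity scale were taken at day 14.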
# [6] = system: large crabgrass (Digitaria sanguinalis, DIGSA); experiment: as above; conditions: phytotoxicity rating 0-100, 14 days after application
# In short: as §3
# [7] = system: ivyleaf morningglory (Ipomoea hederacea, IPOHE); experiment: as above; conditions: phytotoxicity rating 0-100, 14 days after application
# In short: as §3
# [8] = system: barnyardgrass (Echinochloa crus-galli, ECHCG); experiment: as above; conditions: phytotoxicity rating 0-100, 14 days after application
# In short: as §3
# [9] = system: sicklepod (Cassia obtusifolia, CASOB); experiment: as above; conditions: phytotoxicity rating 0-100, 14 days after application
# In short: as §3
# [10] = system: lambsquarters (Chenopodium album, CHEAL); experiment: as above; conditions: phytotoxicity rating 0-100, 14 days after application
# In short: as §3
# [11] = system: velvetleaf (Abutilon theophrasti, ABUTH); experiment: as above; conditions: phytotoxicity rating 0-100, 14 days after application
# In short: as §3
# [12] = system: common ragweed (Ambrosia artemisizfolia L., AMBEL); experiment: as above; conditions: phytotoxicity rating 0-100, 14 days after application
# In short: as §3
# [13] = system: johnsongrass (Sorghum halepense, SORHA); experiment: as above; conditions: phytotoxicity rating 0-100, 14 days after application
# In short: as §3
# [14] = system: redroot pigweed (Amaranthus retroflexus, AMARE); experiment: as above; conditions: phytotoxicity rating 0-100, 14 days after application
# In short: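 Visual ratings on a 0-100 scale (0 no damage, 100 all plants dead) were taken at 14 days after treatment. Rates of 15-1000 g ai/ha in acetone, 187 l/ha, were sprayed onto soil one day after planting (pre-emerge) or onto 2-3 leaf plants with 0.25% v/v surfactant (post-emerge).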
# [15] = system: green foxtail (Setaria viridis, SETVI); experiment: Post-emerge test, greenhouse herbicide activity screening; conditions: post-emerge, 14 days after application, rating scale 0-100
# In short: (§4)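 Each test used a mechanized track sprayer delivering 187 l/ha of acetone solution at 15–1000 g ai/ha. Post-emerge foliage at 2–3 leaves was treated with added 0.25% v/v non-ionic surfactant and bottom-watered only. Injury was assessed on day 14, where 100 means total kill.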
# [16] = system: large crabgrass (Digitaria sanguinalis, DIGSA); experiment: as above; conditions: post-emerge, 14 days after application, rating scale 0-100
# In short: as §4
# [17] = system: ivyleaf morningglory (Ipomoea hederacea, IPOHE); experiment: as above; conditions: post-emerge, 14 days after application, rating scale 0-100
# In short: as §4
# [18] = system: barnyardgrass (Echinochloa crus-galli, ECHCG); experiment: as above; conditions: post-emerge, 14 days after application, rating scale 0-100
# In short: as §4
# [19] = system: sicklepod (Cassia obtusifolia, CASOB); experiment: as above; conditions: post-emerge, 14 days after application, rating scale 0-100
# In short: as §4
# [20] = system: redroot pigweed (Amaranthus retroflexus, AMARE); experiment: as above; conditions: post-emerge, 14 days after application
# In short: as §4
# [21] = system: lambsquarters (Chenopodium album, CHEAL); experiment: as above; conditions: post-emerge, 14 days after application, rating scale 0-100
# In short: as §4
# [22] = system: velvetleaf (Abutilon theophrasti, ABUTH); experiment: as above; conditions: post-emerge, 14 days after application, rating scale 0-100
# In short: as §4
# [23] = system: johnsongrass (Sorghum halepense, SORHA); experiment: as above; conditions: post-emerge, 14 days after application, rating scale 0-100
# In short: as §4
compound,measurement,setting,value
Cn1c(C(F)(F)F)cc(=O)n(-c2c(F)cc(Cl)c(OCC#N)c2NC(=O)c2ccc3ccccc3c2)c1=O [2-200],Pre-emerge Herbicidal Activity RICE,[1]; 63 g ai/ha,80
same,Pre-emerge Herbicidal Activity RICE,[1]; 250 g ai/ha,100
same,Pre-emerge Herbicidal Activity CORN,[2]; 63 g ai/ha,75
same,Pre-emerge Herbicidal Activity CORN,[2]; 250 g ai/ha,100
same,phytotoxicity rating RICE (crop damage),[3]; 63 g ai/ha,10
same,phytotoxicity rating RICE (crop damage),[3]; 250 g ai/ha,20
same,phytotoxicity rating CORN (crop damage),[4]; 63 g ai/ha,10
same,phytotoxicity rating CORN (crop damage),[4]; 250 g ai/ha,20
same,Pre-emerge Herbicidal Activity SETVI,[5]; 63 g ai/ha,100
same,Pre-emerge Herbicidal Activity SETVI,[5]; 250 g ai/ha,100
same,Pre-emerge Herbicidal Activity DIGSA,[6]; 63 g ai/ha,100
same,Pre-emerge Herbicidal Activity DIGSA,[6]; 250 g ai/ha,100
same,Pre-emerge Herbicidal Activity IPOHE,[7]; 63 g ai/ha,100
same,Pre-emerge Herbicidal Activity IPOHE,[7]; 250 g ai/ha,100
same,Pre-emerge Herbicidal Activity ECHCG,[8]; 63 g ai/ha,99
same,Pre-emerge Herbicidal Activity ECHCG,[8]; 250 g ai/ha,100
same,Pre-emerge Herbicidal Activity CASOB,[9]; 63 g ai/ha,80
same,Pre-emerge Herbicidal Activity CASOB,[9]; 250 g ai/ha,100
same,Pre-emerge Herbicidal Activity CHEAL,[10]; 63 g ai/ha,100
same,Pre-emerge Herbicidal Activity CHEAL,[10]; 250 g ai/ha,100
same,Pre-emerge Herbicidal Activity ABUTH,[11]; 63 g ai/ha,100
same,Pre-emerge Herbicidal Activity ABUTH,[11]; 250 g ai/ha,100
same,Pre-emerge Herbicidal Activity AMBEL,[12]; 63 g ai/ha,100
same,Pre-emerge Herbicidal Activity AMBEL,[12]; 250 g ai/ha,100
same,Pre-emerge Herbicidal Activity SORHA,[13]; 63 g ai/ha,100
same,Pre-emerge Herbicidal Activity SORHA,[13]; 250 g ai/ha,100
same,Pre-emerge Herbicidal Activity AMARE,[14]; 63 g ai/ha,100
same,Pre-emerge Herbicidal Activity AMARE,[14]; 250 g ai/ha,100
same,phytotoxicity rating SETVI,[15]; 63 g ai/ha,30
same,phytotoxicity rating SETVI,[15]; 250 g ai/ha,50
same,phytotoxicity rating DIGSA,[16]; 63 g ai/ha,0
same,phytotoxicity rating DIGSA,[16]; 250 g ai/ha,0
same,phytotoxicity rating IPOHE,[17]; 63 g ai/ha,100
same,phytotoxicity rating IPOHE,[17]; 250 g ai/ha,100
same,phytotoxicity rating ECHCG,[18]; 63 g ai/ha,0
same,phytotoxicity rating ECHCG,[18]; 250 g ai/ha,0
same,phytotoxicity rating CASOB,[19]; 63 g ai/ha,100
same,phytotoxicity rating CASOB,[19]; 250 g ai/ha,100
same,phytotoxicity rating AMARE,"[20]; 63 g ai/ha, rating scale 0-100 (0 no damage, 100 complete death)",100
same,phytotoxicity rating AMARE,"[20]; 250 g ai/ha, rating scale 0-100",100
same,phytotoxicity rating CHEAL,[21]; 63 g ai/ha,100
same,phytotoxicity rating CHEAL,[21]; 250 g ai/ha,100
same,phytotoxicity rating ABUTH,[22]; 63 g ai/ha,100
same,phytotoxicity rating ABUTH,[22]; 250 g ai/ha,100
same,phytotoxicity rating SORHA,[23]; 63 g ai/ha,0
same,phytotoxicity rating SORHA,[23]; 250 g ai/ha,0
